Source: patent US12655116B2, “Substituted isophthalic acid diamides” (Bayer Aktiengesellschaft, priority 2020, dated 2026)

Tests used:
SETVI [1] = assay: Pre-emergence herbicidal action against SETVI; assay type: in vivo, Setaria viridis; conditions: Setaria viridis, 504 h; for pest or weed control at 20 g/ha: dosage 20 g/ha; for pest or weed control at 80 g/ha: dosage 80 g/ha
Procedure, shortened: (§1)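 Herbicidal effect was assessed 3 weeks after treatment by visual comparison with untreated controls, 100% denoting dead plants. Aqueous WP or EC preparations had been applied at 600 to 800 l/ha with 0.2% wetting agent to the soil covering freshly sown seeds.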

SETVI [2] = assay: Post-emergence herbicidal action against SETVI; assay type: in vivo, Setaria viridis; conditions: Setaria viridis, 504 h; for pest or weed control at 5 g/ha: dosage 5 g/ha; for pest or weed control at 20 g/ha: dosage 20 g/ha
Procedure, shortened: (§2)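 Herbicidal effect was scored visually in percent after about 3 weeks in the greenhouse. Plants had been raised in sandy loam and treated post-emergence at the one-leaf stage with formulated compound at 600 to 800 l/ha water plus 0.2% wetting agent.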

DIGSA [3] = assay: Pre-emergence herbicidal action against DIGSA; assay type: in vivo, Digitaria sanguinalis; conditions: Digitaria sanguinalis, 504 h; for pest or weed control at 20 g/ha: dosage 20 g/ha; for pest or weed control at 80 g/ha: dosage 80 g/ha
Procedure, shortened: as §1

PHBPU [4] = assay: Post-emergence herbicidal action against PHBPU; assay type: in vivo, Pharbitis purpurea; conditions: Ipomoea purpurea, 504 h, dosage 20 g/ha
Procedure, shortened: as §2

VIOTR [5] = assay: Pre-emergence herbicidal action against VIOTR; assay type: in vivo, Viola tricolor; conditions: Viola tricolor, 504 h; for pest or weed control at 20 g/ha: dosage 20 g/ha; for pest or weed control at 80 g/ha: dosage 80 g/ha
Procedure, shortened: as §1

MATIN [6] = assay: Pre-emergence herbicidal action against MATIN; assay type: in vivo, Matricaria inodora; conditions: Tripleurospermum inodorum, 504 h; for pest or weed control at 20 g/ha: dosage 20 g/ha; for pest or weed control at 80 g/ha: dosage 80 g/ha
Procedure, shortened: as §1

ECHCG [7] = assay: Pre-emergence herbicidal action against ECHCG; assay type: in vivo, Echinochloa crus-galli; conditions: Echinochloa crus-galli, 504 h
Procedure, shortened: as §1

VERPE [8] = assay: Pre-emergence herbicidal action against VERPE; assay type: in vivo, Veronica persica; conditions: Veronica persica, 504 h, dosage 80 g/ha
Procedure, shortened: as §1

AMARE [9] = assay: Pre-emergence herbicidal action against AMARE; assay type: in vivo, Amaranthus retroflexus; conditions: Amaranthus retroflexus, 504 h, scored visually after 3 weeks vs untreated controls, 100% = plants have died, 0% = like control plants
Procedure, shortened: as §1

DIGSA [10] = assay: Post-emergence herbicidal action against DIGSA; assay type: in vivo, Digitaria sanguinalis; conditions: Digitaria sanguinalis, 504 h
Procedure, shortened: as §2

MATIN [11] = assay: Post-emergence herbicidal action against MATIN; assay type: in vivo, Matricaria inodora; conditions: Tripleurospermum inodorum, 504 h; for pest or weed control at 20 g/ha: dosage 20 g/ha
Procedure, shortened: as §2

ABUTH [12] = assay: Pre-emergence herbicidal action against ABUTH; assay type: in vivo, Abutilon theophrasti; conditions: Abutilon theophrasti, 504 h; for pest or weed control at 80 g/ha: scored visually after 3 weeks vs untreated controls (100% = plants have died, 0% = like control plants); for pest or weed control at 20 g/ha: dosage 20 g/ha, scored visually after 3 weeks vs untreated controls, 100% = plants have died, 0% = like control plants, read-out: Pre-emergence action against ABUTH (herbicidal activity in percent)
Procedure, shortened: as §1

VIOTR [13] = assay: Post-emergence herbicidal action against VIOTR; assay type: in vivo, Viola tricolor; conditions: Viola tricolor, 504 h
Procedure, shortened: as §2

POLCO = assay: Pre-emergence herbicidal action against POLCO; assay type: in vivo, Polygonum convolvulus; conditions: Fallopia convolvulus, 504 h; for pest or weed control at 80 g/ha: dosage 80 g/ha
Procedure, shortened: as §1

AVEFA = assay: Pre-emergence herbicidal action against AVEFA; assay type: in vivo, Avena fatua; conditions: Avena fatua, 504 h, pre-emergence
Procedure, shortened: as §1

ABUTH [14] = assay: Post-emergence herbicidal action against ABUTH; assay type: in vivo, Abutilon theophrasti; conditions: Abutilon theophrasti, 504 h, visual assessment about 3 weeks after treatment vs untreated controls; for pest or weed control at 20 g/ha: dosage 20 g/ha
Procedure, shortened: as §2

ALOMY [15] = assay: Post-emergence herbicidal action against ALOMY; assay type: in vivo, Alopecurus myosuroides; conditions: Alopecurus myosuroides, 504 h, dosage 20 g/ha, visual assessment about 3 weeks after treatment vs untreated controls
Procedure, shortened: as §2

LOLRI = assay: Pre-emergence herbicidal action against LOLRI; assay type: in vivo, Lolium rigidum; conditions: Lolium rigidum, 504 h, 80 g/ha
Procedure, shortened: as §1

AMARE [16] = assay: Post-emergence herbicidal action against AMARE; assay type: in vivo, Amaranthus retroflexus; conditions: Amaranthus retroflexus, 504 h, 20 g/ha, visual assessment about 3 weeks after treatment, 100% = plants have died, 0% = like control plants
Procedure, shortened: as §2

ECHCG [17] = assay: Post-emergence herbicidal action against ECHCG; assay type: in vivo, Echinochloa crus-galli; conditions: Echinochloa crus-galli, 504 h; for pest or weed control at 20 g/ha: dosage 20 g/ha
Procedure, shortened: as §2

PHBPU [18] = assay: Pre-emergence herbicidal action against PHBPU; assay type: in vivo, Pharbitis purpurea; conditions: Ipomoea purpurea, 504 h; for pest or weed control at 80 g/ha: dosage 80 g/ha; for pest or weed control at 20 g/ha: dosage 20 g/ha
Procedure, shortened: as §1

ALOMY [19] = assay: Pre-emergence herbicidal action against ALOMY; assay type: in vivo, Alopecurus myosuroides; conditions: Alopecurus myosuroides, 504 h, pre-emergence; for pest or weed control at 80 g/ha: scored visually after 3 weeks vs untreated controls (100% = plants have died, 0% = like control plants)
Procedure, shortened: as §1

VERPE [20] = assay: Post-emergence herbicidal action against VERPE; assay type: in vivo, Veronica persica; conditions: Veronica persica, 504 h, 20 g/ha
Procedure, shortened: as §2

[21] = 20 g/ha, scored visually after 3 weeks, 100% = plants have died, 0% = like control plants

Compound	pest or weed control at 20 g/ha (SETVI [1])	pest or weed control at 80 g/ha (SETVI [1])	pest or weed control at 20 g/ha (DIGSA [3])	pest or weed control at 80 g/ha (DIGSA [3])	pest or weed control at 20 g/ha (VIOTR [5])	pest or weed control at 80 g/ha (VIOTR [5])	pest or weed control at 20 g/ha (MATIN [6])	pest or weed control at 80 g/ha (MATIN [6])	pest or weed control at 80 g/ha (ECHCG [7])	pest or weed control at 80 g/ha (VERPE [8])	pest or weed control at 20 g/ha (AMARE [9])	pest or weed control at 80 g/ha (AMARE [9])	pest or weed control at 20 g/ha (DIGSA [10])	pest or weed control at 20 g/ha (MATIN [11])	pest or weed control at 80 g/ha (ABUTH [12])	pest or weed control at 5 g/ha (VIOTR [13])	pest or weed control at 20 g/ha (VIOTR [13])	pest or weed control at 80 g/ha (POLCO)	pest or weed control at 80 g/ha (AVEFA)	pest or weed control at 20 g/ha (ABUTH [14])	other results
Cn1nnnc1NC(=O)c1ccc(C(F)(F)F)c(C(=O)NC2CC2)c1C1CC1 [Example 1-288]	100%	100%	100%	100%	100%	100%	100%	100%	100%	100%	100%	100%	100%	100%	100%	90%	90%	80%	90%	80%	pest or weed control at 5 g/ha (SETVI [2]): 80%; pest or weed control at 20 g/ha (SETVI [2]): 100%; pest or weed control at 20 g/ha (PHBPU [4]): 80%; pest or weed control at 20 g/ha (ECHCG [7]; 20 g/ha): 80%; pest or weed control at 5 g/ha (DIGSA [10]): 90%; pest or weed control at 5 g/ha (MATIN [11]; dosage 5 g/ha): 90%; pest or weed control at 20 g/ha (ABUTH [12]): 100%; pest or weed control at 5 g/ha (ABUTH [14]; dosage 5 g/ha): 80%; pest or weed control at 20 g/ha (ALOMY [15]): 90%; pest or weed control at 80 g/ha (LOLRI): 80%; pest or weed control at 20 g/ha (AMARE [16]): 100%; pest or weed control at 5 g/ha (ECHCG [17]; dosage 5 g/ha): 80%; pest or weed control at 20 g/ha (ECHCG [17]): 80%; pest or weed control at 80 g/ha (PHBPU [18]): 100%; pest or weed control at 80 g/ha (ALOMY [19]): 90%
CCn1nnnc1NC(=O)c1ccc(I)c(C(=O)NC2CC2)c1Cl [Example 2-197]	90%	100%	100%	100%	100%	100%	80%	100%	100%	90%	100%	100%	90%	80%	100%	80%	100%	100%	100%	80%	pest or weed control at 5 g/ha (SETVI [2]): 80%; pest or weed control at 20 g/ha (SETVI [2]): 100%; pest or weed control at 20 g/ha (AVEFA; [21]): 80%; pest or weed control at 20 g/ha (ALOMY [15]): 90%; pest or weed control at 80 g/ha (LOLRI): 90%; pest or weed control at 20 g/ha (AMARE [16]): 90%; pest or weed control at 20 g/ha (ECHCG [17]): 90%; pest or weed control at 20 g/ha (PHBPU [18]): 80%; pest or weed control at 80 g/ha (PHBPU [18]): 90%; pest or weed control at 80 g/ha (ALOMY [19]): 90%
CCc1c(C(=O)Nc2nnnn2CC)ccc(C(F)F)c1C(=O)NC1CC1 [Example 2-279]	80%	100%	90%	100%	100%	100%	90%	100%	100%	90%	100%	100%	90%	80%	100%	80%	90%	90%	100%	80%	pest or weed control at 5 g/ha (DIGSA [10]): 90%; pest or weed control at 20 g/ha (ABUTH [12]): 80%; pest or weed control at 20 g/ha (POLCO; dosage 20 g/ha): 80%; pest or weed control at 80 g/ha (LOLRI): 80%; pest or weed control at 20 g/ha (AMARE [16]): 100%; pest or weed control at 20 g/ha (ECHCG [17]): 90%; pest or weed control at 20 g/ha (PHBPU [18]): 80%; pest or weed control at 80 g/ha (PHBPU [18]): 90%; pest or weed control at 20 g/ha (VERPE [20]): 90%; pest or weed control at 80 g/ha (ALOMY [19]): 90%; pest or weed control at 20 g/ha (ALOMY [19]; [21]): 80%
